Each structure is given as a SMILES string. Like-named read-outs stand apart in the source and are kept apart here.

For assay [1], the target named is Mcl-1 protein (UniProtKB primary accession number: Q07820) (Homo sapiens, UniProt Q07820). Description: Inhibition of Mcl-1 by fluorescence polarisation, Method 1. Format: binding. The following applies: fluorescence polarisation test; Method 2 values are underlined in the patent (underlining not visible here); read-out: IC50 (M) Mcl-1 FP. The essentials:
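An 11-point DMSO dilution of compound is mixed with buffer (10 mM HEPES, 150 mM NaCl, 0.05% Tween 20, pH 7.4) carrying 1 nM fluorescein-labelled ligand and 5 nM Mcl-1, final concentrations. Displacement is monitored by fluorescence polarisation.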
Background: Polarisation of emitted light reports the rotation of a fluorescent probe.

Assay [2] deals with H929 multiple myeloma tumour line. Description: In vitro cytotoxicity, Microculture Tetrazolium Assay. Type of assay: cell-based. The following applies: H929 cells, 48 hours exposure, MTT, read-out: IC50 (μM) MTT H929. As for the experimental part:
The cytotoxicity studies were carried out on the H929 multiple myeloma tumour line.
The cells are distributed onto microplates and exposed to the test compounds for 48 hours.

Mcl-1 protein, sequence (Q07820 whole entry): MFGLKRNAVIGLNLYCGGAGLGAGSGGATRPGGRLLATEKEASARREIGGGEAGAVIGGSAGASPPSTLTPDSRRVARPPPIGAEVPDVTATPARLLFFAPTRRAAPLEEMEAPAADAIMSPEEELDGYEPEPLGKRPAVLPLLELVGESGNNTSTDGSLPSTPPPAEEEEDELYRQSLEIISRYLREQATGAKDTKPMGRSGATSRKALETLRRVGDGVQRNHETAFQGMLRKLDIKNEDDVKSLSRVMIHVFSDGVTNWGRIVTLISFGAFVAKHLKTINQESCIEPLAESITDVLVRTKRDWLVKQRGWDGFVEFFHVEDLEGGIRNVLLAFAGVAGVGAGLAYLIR

On to `COc1ccccc1CC(Oc1ncnc2sc(-c3ccco3)c(-c3ccc(OCC4CN(C)CCN4C)c(Cl)c3C)c12)C(=O)O` [Example 313, (2R)-2-{[(5Sa)-5-{3-chloro-4-[(1,4-dimethylpiperazin-2-yl)methoxy]-2-methylphenyl}-6-(furan-2-yl)thieno[2,3-d]pyrimidin-4-yl]oxy}-3-(2-methoxyphenyl)propanoic acid], for which the IC50 (in general, the concentration at which inhibition is half-maximal) in assay [1] was 1e-08 M; in assay [2] (Homo sapiens, NCI-H929, 48 h) it was 0.886 µM.

With `COc1ccccc1CC(Oc1ncnc2sc(-c3ccco3)c(-c3ccc(OCC4CN(C)CCO4)c(Cl)c3C)c12)C(=O)O` [Example 314, (2R)-2-{[(5Sa)-5-{3-chloro-2-methyl-4-[(4-methylmorpholin-2-yl)methoxy]phenyl}-6-(furan-2-yl)thieno[2,3-d]pyrimidin-4-yl]oxy}-3-(2-methoxyphenyl)propanoic acid], the IC50 turned out to be 6.9e-09 M in assay [1] and 1.82 µM in assay [2] (Homo sapiens, NCI-H929, 48 h).

With `COc1ccccc1CC(Oc1ncnc2sc(-c3ccco3)c(-c3ccc(OCCC4CCCN4C)c(Cl)c3C)c12)C(=O)O` [Example 316, (2R)-2-{[(5Sa)-5-{3-chloro-2-methyl-4-[2-(1-methylpyrrolidin-2-yl)ethoxy]phenyl}-6-(furan-2-yl)thieno[2,3-d]pyrimidin-4-yl]oxy}-3-(2-methoxyphenyl)propanoic acid], the half-maximal inhibitory concentration (IC50) in assay [1] turned out to be 7.7e-09 M; in assay [2] (Homo sapiens, NCI-H929, 48 h), 1.46 µM.

For the compound `COc1ccccc1CC(Oc1ncnc2sc(-c3ccco3)c(-c3ccc(OCCC4CCN(C)CC4)c(Cl)c3C)c12)C(=O)O` [Example 317, (2R)-2-{[(5Sa)-5-{3-chloro-2-methyl-4-[2-(1-methylpiperidin-4-yl)ethoxy]phenyl}-6-(furan-2-yl)thieno[2,3-d]pyrimidin-4-yl]oxy}-3-(2-methoxyphenyl)propanoic acid], the IC50 in assay [1] was found to be 1.8e-08 M; in assay [2] (Homo sapiens, NCI-H929, 48 h), 0.852 µM.

`COc1ccccc1CC(Oc1ncnc2sc(-c3ccco3)c(-c3ccc(OCCN)c(Cl)c3C)c12)C(=O)O` [Example 319, (2R)-2-({(5Sa)-5-[4-(2-aminoethoxy)-3-chloro-2-methylphenyl]-6-(furan-2-yl)thieno[2,3-d]pyrimidin-4-yl}oxy)-3-(2-methoxyphenyl)propanoic acid]: the 50% inhibitory concentration (IC50) was determined as 1.5e-08 M in assay [1] and 0.834 µM in assay [2] (Homo sapiens, NCI-H929, 48 h).

With `COc1ccccc1CC(Oc1ncnc2sc(-c3ccco3)c(-c3ccc(OCCN(C)C)c(Cl)c3C)c12)C(=O)O` [Example 320, (2R)-2-{[(5Sa)-5-{3-chloro-4-[2-(dimethylamino)ethoxy]-2-methylphenyl}-6-(furan-2-yl)thieno[2,3-d]pyrimidin-4-yl]oxy}-3-(2-methoxyphenyl)propanoic acid], the concentration for half-maximal inhibition (IC50) came to 6.5e-09 M in assay [1] and 0.471 µM in assay [2] (Homo sapiens, NCI-H929, 48 h).

In the case of `CCN1CCN(CCOc2ccc(-c3c(-c4ccco4)sc4ncnc(OC(Cc5ccccc5OC)C(=O)O)c34)c(C)c2Cl)CC1` [Example 322, (2R)-2-{[(5Sa)-5-{3-chloro-4-[2-(4-ethylpiperazin-1-yl)ethoxy]-2-methylphenyl}-6-(furan-2-yl)thieno[2,3-d]pyrimidin-4-yl]oxy}-3-(2-methoxyphenyl)propanoic acid], the half-maximal inhibitory concentration (IC50) worked out at 4.3e-09 M in assay [1] and 0.113 µM in assay [2] (Homo sapiens, NCI-H929, 48 h).

In the case of `COc1ccccc1CC(Oc1ncnc2sc(-c3ccco3)c(-c3ccc(OCCN4CCN(C(C)C)CC4)c(Cl)c3C)c12)C(=O)O` [Example 324, (2R)-2-{[(5Sa)-5-(3-chloro-2-methyl-4-{2-[4-(propan-2-yl)piperazin-1-yl]ethoxy}phenyl)-6-(furan-2-yl)thieno[2,3-d]pyrimidin-4-yl]oxy}-3-(2-methoxyphenyl)propanoic acid], the IC50 in assay [1] is 1.5e-08 M; in assay [2] (Homo sapiens, NCI-H929, 48 h) it was 0.254 µM.

`COc1ccccc1CC(Oc1ncnc2sc(-c3ccco3)c(-c3ccc(OCCN4CCN(CC(F)F)CC4)c(Cl)c3C)c12)C(=O)O` [Example 328, (2R)-2-{[(5Sa)-5-(3-chloro-4-{2-[4-(2,2-difluoroethyl)piperazin-1-yl]ethoxy}-2-methylphenyl)-6-(furan-2-yl)thieno[2,3-d]pyrimidin-4-yl]oxy}-3-(2-methoxyphenyl)propanoic acid]: the concentration for half-maximal inhibition (IC50) in assay [1] turned out to be 5e-09 M; in assay [2] (Homo sapiens, NCI-H929, 48 h), 3.03 µM.

Consider `COc1ccccc1CC(Oc1ncnc2sc(-c3ccco3)c(-c3ccc(OCCN4CCN(Cc5ccccc5)CC4)c(Cl)c3C)c12)C(=O)O` [Example 329, (2R)-2-{[(5Sa)-5-{4-[2-(4-benzylpiperazin-1-yl)ethoxy]-3-chloro-2-methylphenyl}-6-(furan-2-yl)thieno[2,3-d]pyrimidin-4-yl]oxy}-3-(2-methoxyphenyl)propanoic acid], for which the IC50 in assay [1] came to 6e-08 M; in assay [2] (Homo sapiens, NCI-H929, 48 h) it was 3.31 µM.

Regarding `COCCN1CCN(CCOc2ccc(-c3c(-c4ccco4)sc4ncnc(OC(Cc5ccccc5OC)C(=O)O)c34)c(C)c2Cl)CC1` [Example 330, (2R)-2-{[(5Sa)-5-(3-chloro-4-{2-[4-(2-methoxyethyl)piperazin-1-yl]ethoxy}-2-methylphenyl)-6-(furan-2-yl)thieno[2,3-d]pyrimidin-4-yl]oxy}-3-(2-methoxyphenyl)propanoic acid], the IC50 in assay [1] turned out to be 8.3e-09 M; in assay [2] (Homo sapiens, NCI-H929, 48 h), 1.17 µM.

Regarding `CNCCOc1ccc(-c2c(-c3ccco3)sc3ncnc(OC(Cc4ccccc4OC)C(=O)O)c23)c(C)c1Cl` [Example 331, (2R)-2-{[(5Sa)-5-{3-chloro-2-methyl-4-[2-(methylamino)ethoxy]phenyl}-6-(furan-2-yl)thieno[2,3-d]pyrimidin-4-yl]oxy}-3-(2-methoxyphenyl)propanoic acid], the IC50 was 6e-09 M in assay [1] and 0.394 µM in assay [2] (Homo sapiens, NCI-H929, 48 h).

With `CCc1c(-c2c(-c3ccco3)sc3ncnc(OC(Cc4ccccc4OC)C(=O)O)c23)ccc(OCCN2CCN(C)CC2)c1Cl` [Example 335, (2R)-2-{[(5Sa)-5-{3-chloro-2-ethyl-4-[2-(4-methylpiperazin-1-yl)ethoxy]phenyl}-6-(furan-2-yl)thieno[2,3-d]pyrimidin-4-yl]oxy}-3-(2-methoxyphenyl)propanoic acid], the half-inhibitory concentration (IC50) turned out to be 1.2e-08 M in assay [1] and 0.217 µM in assay [2] (Homo sapiens, NCI-H929, 48 h).

For `COc1ccccc1C[C@@H](Oc1ncnc2sc(-c3ccco3)c(-c3ccc(OCCN4CCN(C)CC4)c(Cl)c3F)c12)C(=O)O` [Example 337, (2R)-2-{[5-{3-chloro-2-fluoro-4-[2-(4-methylpiperazin-1-yl)ethoxy]phenyl}-6-(furan-2-yl)thieno[2,3-d]pyrimidin-4-yl]oxy}-3-(2-methoxyphenyl)propanoic acid], the half-maximal inhibitory concentration (IC50) was found to be 3.8e-08 M in assay [1] and 1.87 µM in assay [2] (Homo sapiens, NCI-H929, 48 h).

As to `Cc1c(-c2c(-c3ccco3)sc3ncnc(OC(Cc4ccccc4OC(F)F)C(=O)O)c23)ccc(OCCN2CCN(C)CC2)c1Cl` [Example 338, (2R)-2-{[(5Sa)-5-{3-chloro-2-methyl-4-[2-(4-methylpiperazin-1-yl)ethoxy]phenyl}-6-(furan-2-yl)thieno[2,3-d]pyrimidin-4-yl]oxy}-3-[2-(difluoromethoxy)phenyl]propanoic acid], the concentration for half-maximal inhibition (IC50) in assay [1] came out at 3e-08 M; in assay [2] (Homo sapiens, NCI-H929, 48 h), 1.04 µM.

With `Cc1c(-c2c(-c3ccco3)sc3ncnc(OC(Cc4ccccc4F)C(=O)O)c23)ccc(OCCN2CCN(C)CC2)c1Cl` [Example 341, (2S)-2-{[(5Ra)-5-{3-chloro-2-methyl-4-[2-(4-methylpiperazin-1-yl)ethoxy]phenyl}-6-(furan-2-yl)thieno[2,3-d]pyrimidin-4-yl]oxy}-3-(2-fluorophenyl)propanoic acid], the IC50 in assay [1] was 3.5e-08 M; in assay [2] it was 0.706 µM.

Take `COc1ccc(C)cc1CC(Oc1ncnc2sc(-c3ccco3)c(-c3ccc(OCCN4CCN(C)CC4)c(Cl)c3C)c12)C(=O)O` [Example 344, (2R)-2-{[(5Sa)-5-{3-chloro-2-methyl-4-[2-(4-methylpiperazin-1-yl)ethoxy]phenyl}-6-(furan-2-yl)thieno[2,3-d]pyrimidin-4-yl]oxy}-3-(2-methoxy-5-methylphenyl)propanoic acid]: the IC50 was 1.6e-08 M in assay [1] and 0.22 µM in assay [2] (Homo sapiens, NCI-H929, 48 h).

Turning to `COc1ccc(F)cc1CC(Oc1ncnc2sc(-c3ccco3)c(-c3ccc(OCCN4CCN(C)CC4)c(Cl)c3C)c12)C(=O)O` [Example 345, (2R)-2-{[(5Sa)-5-{3-chloro-2-methyl-4-[2-(4-methylpiperazin-1-yl)ethoxy]phenyl}-6-(furan-2-yl)thieno[2,3-d]pyrimidin-4-yl]oxy}-3-(5-fluoro-2-methoxyphenyl)propanoic acid], the IC50 in assay [1] amounted to 8.6e-09 M; in assay [2] (Homo sapiens, NCI-H929, 48 h) it was 0.322 µM.

On to `COc1cc(F)ccc1CC(Oc1ncnc2sc(-c3ccco3)c(-c3ccc(OCCN4CCN(C)CC4)c(Cl)c3C)c12)C(=O)O` [Example 346, (2R)-2-{[(5Sa)-5-{3-chloro-2-methyl-4-[2-(4-methylpiperazin-1-yl)ethoxy]phenyl}-6-(furan-2-yl)thieno[2,3-d]pyrimidin-4-yl]oxy}-3-(4-fluoro-2-methoxyphenyl)propanoic acid], for which the half-inhibitory concentration (IC50) in assay [1] turned out to be 1.7e-08 M; in assay [2] (Homo sapiens, NCI-H929, 48 h) it was 0.063 µM.

As to `Cc1cccc(C[C@@H](Oc2ncnc3sc(-c4ccco4)c(-c4ccc(OCCN5CCN(C)CC5)c(Cl)c4C)c23)C(=O)O)c1` [Example 347, (2R)-2-{[(5Sa)-5-{3-chloro-2-methyl-4-[2-(4-methylpiperazin-1-yl)ethoxy]phenyl}-6-(furan-2-yl)thieno[2,3-d]pyrimidin-4-yl]oxy}-3-(3-methylphenyl)propanoic acid], the IC50 in assay [1] was found to be 1.4e-08 M; in assay [2], 0.25 µM.

Regarding `Cc1c(-c2c(-c3ccco3)sc3ncnc(OC(Cc4cccc(F)c4)C(=O)O)c23)ccc(OCCN2CCN(C)CC2)c1Cl` [Example 348, (2R)-2-{[(5Sa)-5-{3-chloro-2-methyl-4-[2-(4-methylpiperazin-1-yl)ethoxy]phenyl}-6-(furan-2-yl)thieno[2,3-d]pyrimidin-4-yl]oxy}-3-(3-fluorophenyl)propanoic acid], the half-inhibitory concentration (IC50) in assay [1] was 2.1e-08 M; in assay [2] (Homo sapiens, NCI-H929, 48 h), 0.346 µM.

These data come from patent US9670227B2, “Thienopyrimidine derivatives, a process for their preparation and pharmaceutical compositions containing them” (LES LABORATOIRES SERVIER, priority 2013, dated 2017).
